US20240246964A1 (Arbutus Biopharma Corporation, priority 2021, published 2024)

Experiments:
[1] = target: PD-L1 His protein / PD-1 Fc protein (Homo sapiens (Human), UniProt Q9NZQ7); test: HTRF Assay (PD-1/PD-L1 interaction); format: binding; details: PD-L1 His 6 nM, PD-1 Fc 6 nM
human PD-L1 = human PD-L1 (Homo sapiens (Human), UniProt Q9NZQ7); test: T cell activation luciferase reporter cell culture system (T Cell Activation Assay); format: cell-based; details: luciferase reporter assay; PD-L1 aAPC/CHO-K1 cells with PD-1 effector Jurkat T cells
human PD-L1, sequence (Q9NZQ7 19-290): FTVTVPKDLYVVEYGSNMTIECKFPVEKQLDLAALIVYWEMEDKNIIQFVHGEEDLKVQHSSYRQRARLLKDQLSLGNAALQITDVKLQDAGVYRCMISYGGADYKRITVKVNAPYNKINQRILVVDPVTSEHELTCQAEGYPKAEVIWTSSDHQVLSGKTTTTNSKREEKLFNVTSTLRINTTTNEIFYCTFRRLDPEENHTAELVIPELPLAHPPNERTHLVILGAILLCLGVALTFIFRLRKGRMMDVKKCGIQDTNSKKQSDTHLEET

HBV-specific T cells = test: HBV-specific T cell reinvigoration in vitro assay using PBMCs from chronic hepatitis B patients; format: cell-based, human; details: relative to HBV-specific peptide treatment alone, 24 hours; for Fold Change in IFN-γ Expression of HBV-specific T Cells, Mean ± SD: Mean ± SD of nine chronic hepatitis B donors
Method: In one aspect, this assay measures the ability of a PD-L1 inhibitor to increase HBV specific T cell activity in an infected subject, as measured by the increase in interferon-gamma expression by those T cells.
The ability of PD-L1 inhibitor compounds to reinvigorate HBV-specific T cell activity was assessed as described. PBMCs from nine chronic hepatitis B patients were obtained by Ficoll separation of fresh whole blood and frozen in liquid nitrogen as described previously (Park et al., Nature Communications, 2021; 12:1222). Frozen PBMCs were thawed and plated into 12-well plates at 2×10^6 cells/ml. PBMCs were rested overnight at 37° C. before they were stimulated with HBV-specific peptide pools and allowed to proliferate for 5 days. Expanded PBMCs were then restimulated with HBV-specific peptide pools alone or stimulated with HBV-specific peptide pools and incubated with compounds 89, 90, and 139, a negative control, or anti-PD-L1 antibody as reference. Supernatant was obtained after 24 hours and assayed for IFN-γ using the Luminex platform. Fold change increase in IFN-γ expression mediated by compound treatment relative to HBV-specific peptide treatment alone was determined (Table 3).

[2] = test system: MC38 tumors expressing human PD-L1; test: In vivo anti-tumor efficacy in humanized PD-L1 and PD-1 expressing MC38 tumor mouse model
Method: In one aspect, this assay measures the ability of a PD-L1 inhibitor to reduce the size of MC38 (a murine colon adenocarcinoma cell line) tumors in mice, as an indication of the PD-L1 inhibitor's ability to help treat, ameliorate, and/or prevent cancer in the subject.
In vivo anti-tumor efficacy of compounds was evaluated in mice expressing humanized PD-1 and PD-L1, in which the extracellular domains of murine PD-1 and PD-L1 were genetically replaced with the human extracellular domain counterparts (Huang et al., Scientific Reports, 2017; 7:42687). Humanized PD-1/PD-L1 (hPD-1/hPD-L1) mice were subcutaneously implanted with the colorectal cancer cell line MC38 expressing human PD-L1 and compound treatment initiated when tumor volumes reached approximately 100 mm^3. Compounds were administered via oral gavage once daily at: 30 mg/kg between study days 1 and 7; or 10 mg/kg for 28 days. The anti-PD-L1 monoclonal antibody atezolizumab was included as a positive reference control and administered via intraperitoneal injection at 0.3 mg/kg thrice weekly between study days 1 and 15. Tumor lengths and widths were measured by digital caliper and tumor volumes were calculated by the formula: […].

PD-L1 His protein / PD-1 Fc protein, sequence (Q9NZQ7 19-238): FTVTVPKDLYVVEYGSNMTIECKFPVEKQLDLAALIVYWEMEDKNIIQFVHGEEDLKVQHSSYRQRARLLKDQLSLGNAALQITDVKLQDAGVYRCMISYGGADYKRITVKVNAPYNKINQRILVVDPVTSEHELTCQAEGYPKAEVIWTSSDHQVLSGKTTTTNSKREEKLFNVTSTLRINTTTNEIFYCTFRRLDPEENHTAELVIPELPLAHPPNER

| Molecule | IC50 [1] [nM] | EC50 (human PD-L1) [nM] | Fold Change in IFN-γ Expression of HBV-specific T Cells (HBV-specific T cells; Chronic Hepatitis B Donor 1) [Fold Change] | Fold Change in IFN-γ Expression of HBV-specific T Cells (HBV-specific T cells; Chronic Hepatitis B Donor 2) [Fold Change] | Fold Change in IFN-γ Expression of HBV-specific T Cells (HBV-specific T cells; Chronic Hepatitis B Donor 3) [Fold Change] | Fold Change in IFN-γ Expression of HBV-specific T Cells (HBV-specific T cells; Chronic Hepatitis B Donor 4) [Fold Change] | Fold Change in IFN-γ Expression of HBV-specific T Cells (HBV-specific T cells; Chronic Hepatitis B Donor 5) [Fold Change] | Fold Change in IFN-γ Expression of HBV-specific T Cells (HBV-specific T cells; Chronic Hepatitis B Donor 6) [Fold Change] | Fold Change in IFN-γ Expression of HBV-specific T Cells (HBV-specific T cells; Chronic Hepatitis B Donor 7) [Fold Change] | Fold Change in IFN-γ Expression of HBV-specific T Cells (HBV-specific T cells; Chronic Hepatitis B Donor 8) [Fold Change] | Fold Change in IFN-γ Expression of HBV-specific T Cells (HBV-specific T cells; Chronic Hepatitis B Donor 9) [Fold Change] | Fold Change in IFN-γ Expression of HBV-specific T Cells, Mean ± SD (HBV-specific T cells) [Fold Change] | other results |
| --- | --- | --- | --- | --- | --- | --- | --- | --- | --- | --- | --- | --- | --- |
| COc1cc(-c2nccc(-c3cccc(-c4ccc(CN5CC6(CNC(=O)C6)C5)c(OC)n4)c3Cl)c2Cl)ccc1CN1CC2(CNC(=O)C2)C1 [Compound 89, 2-(4-(3-chloro-4-(2-chloro-3-(6-methoxy-5-((7-oxo-2,6-diazaspiro[3.4]octan-2-yl)methyl)pyridin-2-yl)phenyl)pyridin-2-yl)-2-methoxybenzyl)-2,6-diazaspiro[3.4]octan-7-one] | 0.5 | 16.5 | 2.0 | 2.0 | 1.5 | 3.7 | 1.5 | 2.7 | 1.3 | 2.2 | 1.5 | 2.0 ± 0.8 | Tumor Volume (group mean) ([2]; 10 mg/kg × 28 days, oral gavage once daily, study day 2): 122 mm^3; Tumor Volume (group mean) ([2]; 10 mg/kg × 28 days, oral gavage once daily, study day 5): 170 mm^3; Tumor Volume (group mean) ([2]; 10 mg/kg × 28 days, oral gavage once daily, study day 9): 227 mm^3; Tumor Volume (group mean) ([2]; 10 mg/kg × 28 days, oral gavage once daily, study day 12): 223 mm^3; Tumor Volume (group mean) ([2]; 10 mg/kg × 28 days, oral gavage once daily, study day 16): 222 mm^3; Tumor Volume (group mean) ([2]; 10 mg/kg × 28 days, oral gavage once daily, study day 19): 252 mm^3; Tumor Volume (group mean) ([2]; 10 mg/kg × 28 days, oral gavage once daily, study day 23): 279 mm^3; Tumor Volume (group mean) ([2]; 10 mg/kg × 28 days, oral gavage once daily, study day 26): 328 mm^3; Tumor Volume (group mean) ([2]; 10 mg/kg × 28 days, oral gavage once daily, study day 28): 346 mm^3; Tumor Volume (group mean) ([2]; 10 mg/kg × 28 days, oral gavage once daily, study day −1): 105 mm^3; Tumor Volume (group mean) ([2]; 30 mg/kg × 7 days, oral gavage once daily, study day 2): 116 mm^3; Tumor Volume (group mean) ([2]; 30 mg/kg × 7 days, oral gavage once daily, study day 5): 164 mm^3; Tumor Volume (group mean) ([2]; 30 mg/kg × 7 days, oral gavage once daily, study day 9): 176 mm^3; Tumor Volume (group mean) ([2]; 30 mg/kg × 7 days, oral gavage once daily, study day 12): 212 mm^3; Tumor Volume (group mean) ([2]; 30 mg/kg × 7 days, oral gavage once daily, study day 16): 243 mm^3; Tumor Volume (group mean) ([2]; 30 mg/kg × 7 days, oral gavage once daily, study day 19): 310 mm^3; Tumor Volume (group mean) ([2]; 30 mg/kg × 7 days, oral gavage once daily, study day 23): 418 mm^3; Tumor Volume (group mean) ([2]; 30 mg/kg × 7 days, oral gavage once daily, study day 26): 564 mm^3; Tumor Volume (group mean) ([2]; 30 mg/kg × 7 days, oral gavage once daily, study day 28): 607 mm^3; Tumor Volume (group mean) ([2]; 30 mg/kg × 7 days, oral gavage once daily, study day −1): 105 mm^3 |
| COc1cc(-c2nccc(-c3cccc(-c4ccc(CN5CC6(C5)CN(C(C)=O)C6)c(OC)n4)c3Cl)c2Cl)ccc1CN1CC2(C1)CN(C(C)=O)C2 [Compound 90, 1-(6-((6-(3-(2-(4-((6-acetyl-2,6-diazaspiro[3.3]heptan-2-yl)methyl)-3-methoxyphenyl)-3-chloropyridin-4-yl)-2-chlorophenyl)-2-methoxypyridin-3-yl)methyl)-2,6-diazaspiro[3.3]heptan-2-yl)ethan-1-one] | 0.7 | 58.3 | 1.7 | 2.2 | 1.9 | 3.0 | 1.2 | 2.5 | 1.5 | 2.1 | 1.2 | 1.9 ± 0.6 |  |
| COc1nc(-c2cccc(-c3nccc(-c4ccc(CN5CC[C@@H](O)C5)c(OC)n4)c3Cl)c2Cl)ccc1CN1CC[C@@H](O)C1 [Example 772, (R)-1-((3′-Chloro-2′-(2-chloro-3-(5-(((R)-3-hydroxypyrrolidin-1-yl)methyl)-6-methoxypyridin-2-yl)phenyl)-6-methoxy-[2,4′-bipyridin]-5-yl)methyl)pyrrolidin-3-ol] | 0.85 | 11.6 |  |  |  |  |  |  |  |  |  |  |  |
| COc1nc(-c2cccc(-c3nccc(-c4ccc(CN5CC[C@H](O)C5)c(OC)n4)c3Cl)c2Cl)ccc1CN1CC[C@H](O)C1 [Example 773, (S)-1-((3′-Chloro-2′-(2-chloro-3-(5-(((S)-3-hydroxypyrrolidin-1-yl)methyl)-6-methoxypyridin-2-yl)phenyl)-6-methoxy-[2,4′-bipyridin]-5-yl)methyl)pyrrolidin-3-ol] | 1.03 | 10.6 |  |  |  |  |  |  |  |  |  |  |  |
| COc1nc(-c2cccc(-c3nccc(-c4ccc(CNC5CCN(C(C)=O)CC5)c(OC)n4)c3Cl)c2Cl)ccc1CN1CCC(O)CC1 [Example 774, 1-(4-(((3′-Chloro-2′-(2-chloro-3-(5-((4-hydroxypiperidin-1-yl)methyl)-6-methoxypyridin-2-yl)phenyl)-6-methoxy-[2,4′-bipyridin]-5-yl)methyl)amino)piperidin-1-yl)ethan-1-one] | 1.46 | 13 |  |  |  |  |  |  |  |  |  |  |  |
| atezolizumab |  |  |  |  |  |  |  |  |  |  |  |  | Tumor Volume (group mean) ([2]; intraperitoneal 0.3 mg/kg thrice weekly, study days 1 to 15, study day 2): 122 mm^3; Tumor Volume (group mean) ([2]; intraperitoneal 0.3 mg/kg thrice weekly, study days 1 to 15, study day 5): 162 mm^3; Tumor Volume (group mean) ([2]; intraperitoneal 0.3 mg/kg thrice weekly, study days 1 to 15, study day 9): 156 mm^3; Tumor Volume (group mean) ([2]; intraperitoneal 0.3 mg/kg thrice weekly, study days 1 to 15, study day 12): 192 mm^3; Tumor Volume (group mean) ([2]; intraperitoneal 0.3 mg/kg thrice weekly, study days 1 to 15, study day 16): 242 mm^3; Tumor Volume (group mean) ([2]; intraperitoneal 0.3 mg/kg thrice weekly, study days 1 to 15, study day 19): 243 mm^3; Tumor Volume (group mean) ([2]; intraperitoneal 0.3 mg/kg thrice weekly, study days 1 to 15, study day 23): 341 mm^3; Tumor Volume (group mean) ([2]; intraperitoneal 0.3 mg/kg thrice weekly, study days 1 to 15, study day 26): 429 mm^3; Tumor Volume (group mean) ([2]; intraperitoneal 0.3 mg/kg thrice weekly, study days 1 to 15, study day 28): 472 mm^3; Tumor Volume (group mean) ([2]; intraperitoneal 0.3 mg/kg thrice weekly, study days 1 to 15, study day −1): 105 mm^3 |
